Laboratory results: US5856506A, “Phosphatase inhibitors and methods of use thereof” (University of Pittsburgh, priority 1997, dated 1999)
Read-outs that look alike come from different tables or passages of the source.

Legend:
[1] = target: PP2A (Homo sapiens, UniProt P67775); settings: background, literature, cited from earlier work
[2] = system: PP1; settings: cited from earlier work
[3] = system: PP3; settings: background, literature; cited from earlier work
[4] = target: T1, catalytic subunit of bovine cardiac muscle PP2A (Bos taurus, UniProt P67774); experiment: PP2A activity with fluorescein diphosphate substrate in 96-well plates; type: biochemical; settings: FIG. 6
T1 construct: purchased Gibco-BRL, Gaithersburg, Md; host or cells: bovine cardiac muscle
T1 sequence (P67774 whole entry): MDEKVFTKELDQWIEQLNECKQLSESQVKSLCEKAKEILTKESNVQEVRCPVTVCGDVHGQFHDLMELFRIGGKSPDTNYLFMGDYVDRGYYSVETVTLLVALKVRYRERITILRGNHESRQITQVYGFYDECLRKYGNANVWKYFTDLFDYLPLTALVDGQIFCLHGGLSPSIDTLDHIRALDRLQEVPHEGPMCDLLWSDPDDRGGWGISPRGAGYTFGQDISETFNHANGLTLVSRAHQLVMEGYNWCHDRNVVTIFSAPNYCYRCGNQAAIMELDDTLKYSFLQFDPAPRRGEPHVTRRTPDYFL
Protocol: FIG. 6 is a graph of inhibition of PP2A activity by compound 1d. The catalytic subunit of PP2A was incubated with vehicle alone (control), calyculin A (10 nM) or compound 1d (100 uM), and the dephosphorylation of the substrate fluorescein diphosphate determined spectro-photometrically. Mean results of two independent experiments are shown; bars indicate the range.
In another suitable assay, the ability of the compounds of the present invention to inhibit the activity of protein phosphatase PP2A is assessed. The activity of the catalytic subunit of bovine cardiac muscle PP2A (Gibco-BRL, Gaithersburg, Md.) is measured in 96-well microtiter plates using the substrate fluorescein diphosphate as follows. […] Fluorescence emission from the product is measured spectrofluorometrically, for example with Perseptive Biosystems Cytofluor II (Framingham, Mass.) (excitation filter, 485 nm; emission filter, 530 nm). The rate of increase in absorbance due to formation of dephosphorylated substrate is proportional to phosphatase activity. Thus, decreased absorbance relative to control samples provides a measure of the ability of the present compounds to inhibit the phosphatase.
The activity of the catalytic subunit of bovine cardiac muscle PP2A (Gibco-BRL, Gaithersburg, Md.) was measured with fluorescein diphosphate (Molecular Probes, Inc., Eugene, Oreg.) as a substrate in 96-well microtiter plates. […]

[5] = system: human MDA-MB-231 breast cancer cells; experiment: Antiproliferative activity, tetrazolium reduction assay (Lazo method), 72 h; type: cell-based; settings: MDA-MB-231, 72 h
Excerpt: The ability of the compounds of the present invention to inhibit proliferation can be assessed by methods known to those of ordinary skill in the art. For example, proliferating cells can be contacted with a compound of the invention, and cell numbers determined. A reduction in cell number in treated versus untreated cells provides a measure of the ability of the present compounds to inhibit proliferation. In a preferred embodiment the cells to be treated are cancer cells, for example breast cancer cells such as the CDC25B+ breast cancer cells MDA-MB-231, which are available from the American Type Culture Collection (Accession No. HTB-26). The antiproliferative activity of the present compounds can also be measured by the assay described by Lazo et al. (1995) J. Biol. Chem. 270: 5506, the disclosure of which is incorporated herein by reference. The microtiter-based calorimetric assay is based upon the reduction of 3-[4,5-dimethylthiazol-2-yl]-2,5-diphenyl tetrazolium bromide by living cells, and permits evaluation of the cytostatic or cytotoxic actions of large numbers of compounds quickly in mouse embryonic fibroblasts and human CDC25B+ breast cancer cells. Briefly, exponentially growing CDC25B+ MDA-MB-231 cells are treated continuously with from 0 to 100 μM of a compound of the invention, and cell proliferation is determined calorimetrically after 72 hours by assessing the ability of the cells to reduce 3-[4,5-dimethylthiazol-2-yl]-2,5-diphenyl tetrazolium bromide.
Human MDA-MB-231 breast carcinoma cells were obtained from the American Type Culture Collection at passage 28 and were maintained for no longer than 20 passages. The cells were grown in RPMI-1640 supplemented with 1% penicillin (100 μg/mL) and streptomycin (100 μg/mL), 1% L-glutamate,and 10% fetal bovine serum in a humidified incubator at 37° C. under 5% CO2 in air. Cells were routinely found free of mycoplasma. To remove cells from the monolayer for passage or flow cytometry, cells were washed two times with phosphate buffer and briefly (<3 min) treated with 0.05% trypsin/2 mM EDTA at room temperature. After the addition of at least two volumes of growth medium containing 10W fetal bovine serum, the cells were centrifuged at 1,000×g for 5 min. Compounds were made into stock solutions using DMSO, and stored at -20° C. All compounds and controls were added to obtain a final concentration of 0.1-0.2% (v/v) of the final solution for experiments.
The antiproliferative activity of the compounds was determined by the method of Lazo et al. (1995) J. Biol. Chem. 270:5506. Briefly, cells (6.5×10^3 cells/cm^2) were plated in 96 well flat bottom plates for the cytotoxicity studies and incubated at 37° C. for 48 h. The plating medium was aspirated off 96 well plates and 200 μL of growth medium containing the compound was added per well. Compounds were used at from O to the highest available concentration which ranged from 30 to 100 μM. Plates were incubated for 72 h, and then washed 4× with serum free medium. After washing, 50 μL of 3-[4,5-dimethylthiazol-2-yl]-2,5-diphenyl tetrazolium bromide solution (2 mg/mL) was added to each well, followed by 150 μL of complete growth medium. Plates were then incubated an additional 4 h at 37° C. The solution was aspirated off, 200 μL of DMSO added, and the plates were shaken for 30 min at room temperature. Absorbance at 540 nm was determined with a Titertek Multiskan Plus plate reader. Biologically active compounds were tested at least 3 independent times.

[6] = system: PP3; experiment: Phosphatase activity by [32P] release from phosphorylase-a or phosphohistone (Honkanen method); type: biochemical; settings: 100 μM inhibitor; none = 100
Protocol: (§1) It has been found in accordance with the present invention that compounds of formula I are capable of inhibiting serine/threonine protein phosphatases. Inhibition of serine/threonine protein phosphatases is defined herein as inhibition of the activity of one or more of PP1, PP2A or PP3 at a concentration of 100 μM or less of the inhibitor compound. In a preferred embodiment, the activity of the phosphatase is inhibited by at least 10%. In more preferred embodiments, the activity of the phophatase is inhibited by at least 25%, or even more preferably, by at least 50%. Inhibition of PP1, PP2A or PP3 can be assessed by methods known to one of ordinary skill in the art. Suitable assays are described, for example by Honkanen et al. (1994) Toxicon 32:339 and Honkanen et al. (1990) J. Biol. Chem. 265: 19401, the disclosures of which are incorporated herein by reference. Briefly, phosphatase activity is determined by quantifying the [^32 p] released from a ^32 p-labeled substrate such as phosphohistone or phosphorylase-a. Decreased [^32 p] release in the presence of the compounds of the present invention relative to control samples provides a measure of the ability of the compounds of the invention to inhibit PP1, PP2A or PP3.
(§2) Phosphatase activity and the inhibitory activity of the compounds of Table 1 were determined by the method of Honkanen et al. (1994) Toxicon 32:339. Briefly, phosphatase activity against phosphorylase-a or phosphohistone was 25 determined by the quantification of liberated [^32 p]. Assays, 80 μl total volume, containing 50 mM Tris-HCl, pH 7.4, 0.5 mM DTT, 1 mM EDTA (assay buffer) and [^32 p]phosphoprotein (1-2 μM PO4), were conducted as described previously (Honkanen et al., 1991 Mol. Pharmac. 40:577). Dephosphorylation reactions were routinely conducted for 5-10 min. using phosphorylase-a as a substrate and for 10-20 min. using phosphohistone. In all assays the dephosphorylation of substrate was kept to less than 10% of the total phosphorylated substrate available, and the reactions were adjusted to ensure that enzyme activity was linear with respect to enzyme concentration and time. [^32 p]Phosphate liberated by the enzymes was extracted as a phosphomolybdate complex and measured according to the methods of Killilea et al. (1978) Arch. Biochem. Biophys. 191:638. Inhibition of protein phosphatase activity by inhibitors was determined by adding the 100 μM of inhibitors to the enzyme mixture 5-10 min. prior to initiating the reaction with the addition of substrate.

[7] = target: PP2A (Bos taurus, UniProt P67774); experiment: as above; type: biochemical; settings: 100 μM inhibitor; none = 100; read-out: PP2A, percent inhibition relative to control (100%)
Chain of PP2A (Bos taurus, UniProt P67774) (P67774 whole entry): as above
Protocol: as §1, §2

[8] = system: PP1; experiment: as above; type: biochemical; settings: 100 μM inhibitor; none = 100
Protocol: as §1, §2

[9] = system: Recombinant human CDC25B; experiment: CDC25B phosphatase assay, GST fusion protein, fluorescein diphosphate; type: biochemical; settings: none = 100; 1 hour preincubation; concentration not given (0.3-100 μM tested)
Protocol: The compounds of the present invention are also capable of inhibiting dual specificity phosphatases, for example CDC25A and CDC25B. Phosphatases CDC25A and CDC25B are disclosed in U.S. Pat. No. 5,441,880. Inhibition of dual specificity phosphatases is defined herein as inhibition of the activity of CDC25A and/or CDC25B at a concentration of 100 μM of the inhibitor compound. In a preferred embodiment, the activity of the phosphatase is inhibited by at least 10%. In more preferred embodiments, the activity of the phophatase is inhibited by at least 25%, or even more preferably, by at least 50%. The ability of the compounds of the present invention to inhibit the phosphatases can be determined by measuring the effect of the compounds on the ability of CDC25 or CDC25B to dephosphorylate a substrate. Appropriate methods are known to those of ordinary skill in the art, and include, for example, calorimetric assays. A suitable assay is described in U.S. Pat. No. 5,441,880, the disclosure of which is incorporated herein by reference. […] The assay may be performed as a rapid calorimetric microtitration plate assay.
Compounds 1a-1r were assessed for ability to inhibit CDC25A and CDC25B activity. Recombinant human CDC25A and CDC25B were obtained as a glutahione-S-transferase (GST) fusion protein using human cDNA and standard molecular biological methods. The cDNA constructs are in a plasmid that is expressed in E. coli under the control of isopropyl-beta-D-[…] (IPTG). The bacterial pellet was disrupted by sonication, and centrifuged at 10,000×g. Using glutathione-agarose beads, the fusion protein was purified from postmicrosomal supernant fraction as described by Baratte et al. (1992) Anticancer Res. 12: 873-880. Phosphatase activity was assayed with a spectrofluorimeter under the following conditions: 1 unit (1 U=amount of protein that induces 33 fluoresence units/minute of product) of fusion protein in a final incubation mixture (150 μL) comprised of 25 mM Tris (pH=8.0), 5 mM EDTA, 33 μg/ml BSA, and 20 μM fluorescein diphosphate in 96-well microtiter plates. Plates were preincubated for 1 hour with 0 (control), 0.3, 1, 3, 10, 30, 100 μM compounds at room temperature. After the 1 hour incubation at room temperature, fluorescence of the fluorescein product (Ex. 485 nm; Em. 530 nm) were measured with a Biosystems Cytofluor II (Framingham, Mass.).

[10] = somewhat selective but weak inhibitors

Chain of PP2A (Homo sapiens, UniProt P67775) (P67775 whole entry): as the sequence (P67774 whole entry) above

For `C[C@@]12C(=O)OC(=O)[C@]1(C)[C@H]1CC[C@@H]2O1` [cantharidine], the IC50 [1, 10] is listed as 160 to 10000 nM.

For thyrsiferal-23-acetate, the IC50 [1, 10] is given as 160 to 10000 nM.

For `C/C=C1/C(=O)N[C@@H](C(=O)O)[C@H](C)C(=O)N[C@@H](C(C)C)C(=O)N[C@@H](/C=C/C(C)=C/[C@H](C)[C@H](Cc2ccccc2)OC)[C@H](C)C(=O)N[C@@H](C(=O)O)CCC(=O)N1C` [Motuporin], the IC50 [2] is given as under 1 nM.

For `CO[C@H]([C@H](O)CC(=O)[C@@H](C)[C@@H](O)CC[C@@H](C)[C@@H]1O[C@]2(CC[C@@H](C)[C@H](CC[C@H](C)C(C)=O)O2)CC[C@@H]1C)[C@H](OC(=O)C[C@@H](O)C1=C(C)C(=O)OC1=O)C(C)C` [Tautomycin], the IC50 ([2]; background, literature) is listed as about 15 nM, the IC50 [3] is listed as about 15 nM and the IC50 [1] is listed as about 15 nM.

In the case of `COC[C@@H]([C@H](O)[C@H](O)C(=O)NCC[C@H](C)c1nc(/C=C/C[C@@H]2O[C@]3(C[C@@H](O)[C@@H]2C)O[C@H]([C@H](C[C@H](O)[C@H](C)[C@H](O)[C@H](C)/C=C(C)/C(C)=C/C=C/C(C)=C\C#N)OC)[C@H](OP(=O)(O)O)C3(C)C)co1)N(C)C` [calyculin A], the IC50 ([2]; background, literature) is given as about 0.3 nM, the “inhibition of PP2A activity (in words)” value ([4]; 10 nM) is given as “inhibited PP2A activity” and the IC50 [3] is given as about 0.3 nM. For the same compound, the IC50 [1] was about 0.3 nM.

In the case of `CCCCCCN(CCNC(=O)c1nc(-c2ccccc2)oc1C)C(=O)CCC(NC(=O)CCc1ccccc1)C(=O)O` (stereo not drawn) [Compound 1h], the IC50 ([5]; Homo sapiens, MDA-MB-231, 72 h continuous treatment, read-out: concentration causing 50% growth inhibition) is reported as 20000 nM, the “concentration dependence of growth inhibition (in words)” value [5] is reported as “no further cytotoxicity at higher drug concentrations” and the “PP3 remaining activity, percent of control” value [6] is reported as 17%. For the same compound, the PP2A remaining activity, % of control at 100 µM [7] was 88%, the “PP1 remaining activity, percent of control” value [8] was 63% and the “CDC25B activity remaining, percent of control” value [9] was 69%.

In the case of `CCCCCCCCCC(=O)NC(CCC(=O)N(C)CCNC(=O)c1nc(-c2ccccc2)oc1-c1ccccc1)C(=O)O` (stereo not drawn) [Compound 1d], the inhibition at 100 µM ([4]; 100 μM) is reported as 50%, the “PP3 remaining activity, percent of control” value [6] is reported as 33% and the PP2A remaining activity, % of control at 100 µM [7] is reported as 69%. For the same compound, the “PP1 remaining activity, percent of control” value [8] was 53% and the “CDC25B activity remaining, percent of control” value [9] was 91%.
